In PubChem BioAssay AID2049 (The Scripps Research Institute Molecular Screening Center, 2009):
Active and inactive are the calls of the source. No rule for the calls is given here.

Tested on: Cytotoxicity
Test: STAT3 activators, late-stage profile, late-stage follow-up, cell-based, STAT1 reporter, BCL3 qPCR, cytotoxicity (AID 2049)
Details: human cell reporter, STAT3/STAT1 activation, cytotoxicity panel

| SMILES | CC50 [µM] |
| --- | --- |
| COc1cc(NC(=O)c2cc(C3CC3)on2)c(OC)cc1Cl | > 55.7 |

Biological target: Signal transducer and activator of transcription 1-alpha/beta (Homo sapiens) (UniProt P42224)
Test: as above
Details: STAT3/STAT1 activation, STAT1, Activation

Chain of Signal transducer and activator of transcription 1-alpha/beta (Homo sapiens) (P42224 whole entry, looked up): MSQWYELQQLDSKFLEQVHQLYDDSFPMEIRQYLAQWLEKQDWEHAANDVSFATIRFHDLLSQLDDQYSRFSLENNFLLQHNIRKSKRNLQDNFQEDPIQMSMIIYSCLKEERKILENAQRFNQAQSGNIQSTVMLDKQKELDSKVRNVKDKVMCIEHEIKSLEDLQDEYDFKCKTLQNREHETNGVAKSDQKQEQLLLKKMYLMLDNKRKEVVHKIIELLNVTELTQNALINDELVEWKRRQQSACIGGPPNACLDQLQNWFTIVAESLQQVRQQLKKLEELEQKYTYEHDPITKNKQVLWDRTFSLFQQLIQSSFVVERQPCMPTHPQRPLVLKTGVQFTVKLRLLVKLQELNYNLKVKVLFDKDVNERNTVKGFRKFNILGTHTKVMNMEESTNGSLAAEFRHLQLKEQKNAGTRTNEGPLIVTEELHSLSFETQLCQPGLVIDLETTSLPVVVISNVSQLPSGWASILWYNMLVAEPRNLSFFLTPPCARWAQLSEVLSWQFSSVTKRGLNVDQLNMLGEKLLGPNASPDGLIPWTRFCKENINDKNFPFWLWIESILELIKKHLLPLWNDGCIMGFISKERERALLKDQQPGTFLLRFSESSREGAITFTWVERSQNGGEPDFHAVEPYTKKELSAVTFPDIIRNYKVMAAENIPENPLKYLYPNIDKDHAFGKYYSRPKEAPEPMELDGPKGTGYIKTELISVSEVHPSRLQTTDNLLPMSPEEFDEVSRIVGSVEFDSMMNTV

| SMILES | EC50 |
| --- | --- |
| COc1cc(NC(=O)c2cc(C(C)C)on2)c(OC)cc1Cl | > 55.7 µM (inactive) |
| COc1cc(NC(=O)c2cc(C3CC3)on2)ccc1Br | inactive |
| COc1cc(OC)c(NC(=O)c2cc(CN3CCCC3)on2)cc1Cl | > 55.7 µM (inactive) |
| COc1ccc(Cl)cc1NC(=O)c1cc(C2CC2)on1 | > 55.7 µM (inactive) |
| COc1cc(NC(=O)c2cc(C3CC3)on2)cc(OC)c1 | inactive |
| COc1ccc(OC)c(NC(=O)c2cc(CN3CCCC3)on2)c1 | > 55.7 µM (inactive) |
| COc1cc(NC(=O)c2cc(C)on2)c(OC)cc1Cl | > 55.7 µM (inactive) |
| Nc1c(C(=O)Nc2ccccc2)noc1C(=O)c1ccccc1 | > 55.7 µM (inactive) |
| O=C(Nc1ccccc1Cl)c1cc(C2CC2)on1 | 3.05 µM |
| CN(C(=O)c1cc(C2CC2)on1)c1ccccc1 | > 55.7 µM (inactive) |
| COc1cccc(NC(=O)c2cc(C3CC3)on2)c1 | 5.23 µM |
| COc1cc(NC(=O)c2cc(C3CC3)on2)c(OC)cc1Cl | > 55.7 µM (inactive) |
| COc1ccccc1NC(=O)c1cc(-c2ccccc2)on1 | inactive |
| CCCc1cc(C(=O)Nc2cc(OC)c(Cl)cc2OC)no1 | > 55.7 µM (inactive) |
